Source: patent US7402417B2, “P450 oxygenases and methods of use” (Washington State University Research Foundation, priority 2003, dated 2008)
Where two headings read alike, the source gives them in different places.

Legend:
[1] = target: T1, recombinant taxoid 5α-hydroxylase (clone S1) (Taxus cuspidata, UniProt Q6WG30); assay: Substrate binding spectra with Sf9 microsomes enriched in recombinant 5α-hydroxylase; settings: no NADPH
T1 construct: the S1 ORF was amplified using Pfu DNA polymerase and gene-specific primers containing a BamHI site immediately upstream of the start codon; made in house; host or cells: Spodoptera frugiperda Sf9 cells (baculovirus, pFastBac1); microsomal membranes
Protocol: Microsomes from S. frugiperda cells enriched with 200 pmol recombinant taxoid 5α-hydroxylase (clone S1) were employed. Taxa-4(20),11(12)-diene was assayed over a concentration range from 0.1 to 10 μM, and a binding constant (Ks) of 4±1 μM was determined (upper graph). Taxa-4(5),11(12)-diene was assayed over a concentration range of 0.1 to 20 μM and a binding constant (Ks) of 6.5±1.5 μM was determined (lower graph).
Binding spectra for both taxadiene isomers (in the absence of NADPH) were then recorded using the Sf9 cell microsomes enriched in the recombinant 5α-hydroxylase. Substrate binding spectra were obtained as described by Schenkin and Jausson, Methods Mol. Biol. (Cytochrome P450 Protocols), 107:25-33, 1998) using a Perkin-Elmer Lambda 18 spectrophotometer (Haudenschild et al., Arch. Biochem. Biophys., 379:127-136, 2000). Substrate binding spectra were recorded with up to 200 pmol of recombinant microsomal cytochrome P450 enzyme (as determined by CO-difference spectral analysis) per cuvette in 100 mM sodium phosphate buffer at pH 7.5. In preparation for binding studies, the taxadiene isomers were each dissolved in DMSO and 1 μl additions to the sample were made to a final concentration of 1.5% (v/v). For data analysis, Spectrum for Windows (Perkin-Elmer Corp., Wellesey, Mass.) and Sigmaplot 7.0 (SPSS Inc., Chicago, Ill.) were employed and experiments were run in triplicate.

[2] = target: T1, recombinant taxoid 5α-hydroxylase (clone S1); assay: Kinetic evaluation with Sf9 microsomes enriched in recombinant 5α-hydroxylase (radio-HPLC, Michaelis-Menten); type: biochemical; settings: recombinant enzyme, 200 μM NADPH plus regenerating system
Protocol: Kinetic constants for both isomers were next evaluated (at a saturating 200 μM concentration of NADPH plus regenerating system; Shimada and Yamazai, Meth. Mol. Biol., 107:85-93, 1998). The isolated microsomes were resuspended in 50 mM Hepes, pH 7.5, containing 1 mM DTT and 5% (v/v) glycerol, and the 1 ml reactions (˜600 μg protein, 50 μM substrate dissolved in DMSO, and the requisite cofactors (e.g., NADPH plus regenerating system) were run as described previously, with the identical protocols for product analysis (Jennewein et al., Proc. Natl. Acad. Sci. USA, 98:13595-13600, 2001). DMSO was without influence on the reaction. For kinetic evaluation, following the establishment of linear reaction conditions in protein concentration and time, the response to substrate concentration was plotted by the Michaelis-Menten method (Sigmaplot 7.0) using the calibrated radio-HPLC protocol for product determination Data from three independent experiments were pooled and the line of best fit taken (R^2>0.99).

[3] = tested on: microsomal 5α-hydroxylase activity; assay: Kinetic evaluation with Taxus suspension cell microsomes (radio-HPLC, total product); type: biochemical, Taxus media hicksii; settings: T. media suspension cell microsomes, [20-3H] substrate
Protocol: Preparation of Taxus suspension cell microsomes and assays for microsomal 5α-hydroxylase activity were carried out as previously described (Hefner et al., Chem. Biol., 3:479489, 1996; Lovy Wheeler et al., Arch. Biochem. Biophys., 390:265-278, 2001) with the following modifications: Unelicited Taxus media hicksii cells were harvested 14 days after transfer, separated from the media, frozen in liquid N2 and ground to a fine powder with a mortar and pestle, with extraction and microsome preparation as described by Lovy Wheeler et al. (Arch. Biochem. Biophys., 390:265-278, 2001). The previously described radio-HPLC-based assay (Lovy Wheeler et al., Arch. Biochem. Biophys., 390:265-278, 2001) was employed to separate the substrate from taxadien-5α-ol and polyols derived therefrom which were summed as “total product” for the purpose of rate determination.
Following the confirmation of linear reaction conditions in protein concentration and time, kinetic constants were determined for both [20-3H]taxa-4(5),11(12)-diene and [20-3H]taxa-4(20),11(12)-diene with the optimized assay (Hefner et al., Chem. Biol., 3:479-489, 1996). The radio-HPLC-based assay previously described by Lovy Wheeler et al. (Arch. Biochem. Biophys., 390:265-278, 2001) was employed to permit summing of taxadien-polyols derived subsequently from the initially formed taxadienol product generated by this microsomal system that contains all of the downstream cytochrome P450 taxoid oxygenases of the pathway (Lovy Wheeler et al., Arch. Biochem. Biophys., 390:265-278, 2001).
Thus, one or more constituents of the crude Taxus microsomal protein preparation catalyze the reaction of taxa-4(5),11(12)-diene and taxa-4(20),11(12)-diene to the corresponding taxadienols.

[4] = target: T2, clone S1 taxoid 5α-hydroxylase in Saccharomyces cerevisiae WAT11 (Taxus cuspidata, UniProt Q6WG30); assay: In vivo feeding of labeled substrate to yeast expressing clone S1, radio-HPLC and GC-MS of products; type: cell-based; settings: 30 μM substrate
T2 construct: expressed in transfected cells; host or cells: Saccharomyces cerevisiae strain WAT11
Excerpt: This in vivo feeding protocol eliminated the uncertainties associated with microsome isolation and in vitro assay, including the instability of P450 oxygenases in yeast membranes (Schoendorf et al., Proc. Nail. Acad. Sci. USA, 98:1501-1506, 2001).
Transformed and induced yeast cells were harvested by centrifugation as described in Example 2. As a negative control for the feeding experiments, the yeast host was transformed with the pYES2.1/V5-HIS-TOPO™ vector containing a β-glucuronidase insert instead of the cytochrome P450 S1 clone. The cells were resuspended in 3 ml of fresh YPLA medium to which 30 μM of the labeled test substrate was added. Test substrates included:
The cell and test substrate suspension was incubated overnight at 30° C. with mixing (250 rpm). The incubation mixture was then treated for 15 minutes in a sonication bath and extracted twice with 3 ml of hexane:ethyl acetate (4:1 v/v). The organic extract was then dried under N2, the residue dissolved in 100 μl of acetonitrile, and an aliquot was separated by reversed-phase radio-HPLC (250 mm×4.6 mm column of Alltech (Deerfield, Ill.) Econosil C18 (5 μm); flow rate of 1 ml/min; with radio-detection of the effluent (Flow-One-Beta Series A-1000, Radiomatic Corp., Meriden, Conn.)). The following gradient was employed: 0-5 minutes at 100% Solvent A (97.99% H2O with 2% CH3CN and 0.01% H3PO4 (v/v)), 5-15 minutes at 0-50% Solvent B (99.99% CH3CN with 0.01% H3PO4 (v/v)), 15-55 minutes at 50-100% Solvent B, 55-65 minutes at 100% Solvent B, 65-70 minutes at 0-100% Solvent A, 70-75 minutes at 100% Solvent A. The HPLC eluant was collected in 1 minute fractions and the appropriate fractions containing the radiolabeled product were combined, dried under a stream of N2, and dissolved in the minimum volume of benzene for GC-MS analysis.
GC-MS analyses were performed on a Hewlett-Packard 6890 GC-MSD system using a ZB-5 capillary column (Phenomenex (Torrance, Calif.); 30 m length; 0.25 mm inner diameter; coated with a 0.25 μm film of phenyl (5%) polysiloxane). Cool on-column injection was used, with He flow rate of 0.7 ml/min and a temperature program from 40° C. to 320° C. at 20° C./min. Spectra were recorded at 70 eV.

[5] = tested on: microsomal taxa-4(5),11(12)-diene isomerase activity; assay: Assay for microsomal taxadiene isomerase activity and pH-dependent isomerization; type: biochemical; settings: Taxus or Spodoptera microsomes, no NADPH or no O2, or CO, miconazole, clotrimazole, boiled controls
Protocol: The assay for microsomal taxa-4(5),11(12)-diene isomerase activity (and the reverse isomerization) was carried out under standard cytochrome P450 oxygenase conditions but in the absence of NADPH or O2, or in the presence of inhibitory concentrations of CO, miconazole or clotrimazole (under conditions described previously for which the rate of 5α-hydroxylation is negligible (Hefner et al., Chem. Biol., 3:479489, 1996)). A number of additional, potential cofactors were also tested, including FAD, FADH2, FMN, FMNH2, NAD+, NADH and NADP+ (all at 2.5 mM), as well as MgCl2 (at 5.0 mM). The possibility of pH-dependent isomerization was tested by incubating each isomer (100 μM) in phosphate buffer (pH 4 to 10) for 12 hours at 31° C., with separation of isomers as described previously (Williams et al., Arch. Biochem. Biophys., 379:137-146, 2000).

taxoid 5α-hydroxylase = taxoid 5α-hydroxylase (Taxus cuspidata, UniProt Q6WG30); assay: Kinetic evaluation of taxadiene isomers, average of recombinant and T. media microsomes (FIG. 4); type: biochemical; settings: average of recombinant (Sf9) and T. media microsomes; substrate 1 to 500 μM
Protocol: Taxa-4(20),11(12)-diene (◯) and taxa-4(5),11(12)-diene (●) were evaluated with microsomes from S. formgiperda cells enriched with 50 pmol recombinant taxoid 5α-hydroxylase (A), and with microsomes from T. media suspension cells containing about 50 pmol of total native cytochrome P450 (B). Substrate Concentration range was varied from 1 to 500 μM in all cases.

5α-hydroxylase = settings: 100 μM inhibitor; cited from earlier work
[6] = tested on: native microsomal 5α-hydroxylase; settings: native microsome preparations from yew stem tissue, determined previously; cited from earlier work
taxoid 13α-hydroxylase = target: T3, taxoid 13α-hydroxylase (Taxus cuspidata, UniProt Q8W4T9); assay: Feeding to yeast that functionally express taxoid 13α-hydroxylase; type: cell-based; settings: product of clone S1 enzyme fed to 13α-hydroxylase yeast
T3 construct: expressed in transfected cells
Excerpt: The taxa-4(20),11(12)-dien-5α-ol radiolabeled product of the clone S1 enzyme was isolated by HPLC, and the purified material was fed to yeast that functionally express the previously characterized taxoid 13α-hydroxylase (Jennewein et al., Proc. Natl. Acad. Sci. USA, 98:13595-13600, 2001). As discussed above, 13α-hydroxylation of a paclitaxel intermediate is believed to follow 5α-hydroxylation in the paclitaxel biosynthetic pathway (Floss and Mocek, Taxol: Science and Applications, CRC Press, Boca Raton, 191-208, 1995; and Croteau et al., Curr. Top. Plant Physiol. 15:94-104, 1996). Thus, as expected, taxa-4(20),11(12)-dien-5α-ol was quantitatively converted to taxa-4(20),11(12)-dien-5α,13α-diol by the 13α-hydroxylase.

[7] = FIG. 3, microsomes with 200 pmol recombinant enzyme, read-out: binding constant (Ks)
[8] = over a 100-fold range of substrate concentrations, pH 7.5, read-out: substrate binding constant (Ks), variation
[9] = overnight at 30° C., radio-HPLC

T2 sequence (Q6WG30 with tags, fused parts or gaps limits assumed): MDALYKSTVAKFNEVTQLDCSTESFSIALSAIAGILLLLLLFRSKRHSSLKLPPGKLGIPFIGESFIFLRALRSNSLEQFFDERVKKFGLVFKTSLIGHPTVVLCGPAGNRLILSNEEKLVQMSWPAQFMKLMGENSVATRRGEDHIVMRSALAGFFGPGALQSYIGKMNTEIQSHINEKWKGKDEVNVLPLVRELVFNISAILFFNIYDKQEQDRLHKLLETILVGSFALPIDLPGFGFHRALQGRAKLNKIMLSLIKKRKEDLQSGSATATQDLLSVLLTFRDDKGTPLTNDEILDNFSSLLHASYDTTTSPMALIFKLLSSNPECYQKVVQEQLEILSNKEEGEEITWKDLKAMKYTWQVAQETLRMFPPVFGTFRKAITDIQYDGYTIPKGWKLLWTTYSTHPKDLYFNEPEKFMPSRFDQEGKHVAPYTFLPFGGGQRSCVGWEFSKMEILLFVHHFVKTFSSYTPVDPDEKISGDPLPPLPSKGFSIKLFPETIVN
T1 sequence (Q6WG30 with tags, fused parts or gaps): as the sequence (Q6WG30 with tags, fused parts or gaps limits assumed) above
Chain of taxoid 5α-hydroxylase (Q6WG30 whole entry): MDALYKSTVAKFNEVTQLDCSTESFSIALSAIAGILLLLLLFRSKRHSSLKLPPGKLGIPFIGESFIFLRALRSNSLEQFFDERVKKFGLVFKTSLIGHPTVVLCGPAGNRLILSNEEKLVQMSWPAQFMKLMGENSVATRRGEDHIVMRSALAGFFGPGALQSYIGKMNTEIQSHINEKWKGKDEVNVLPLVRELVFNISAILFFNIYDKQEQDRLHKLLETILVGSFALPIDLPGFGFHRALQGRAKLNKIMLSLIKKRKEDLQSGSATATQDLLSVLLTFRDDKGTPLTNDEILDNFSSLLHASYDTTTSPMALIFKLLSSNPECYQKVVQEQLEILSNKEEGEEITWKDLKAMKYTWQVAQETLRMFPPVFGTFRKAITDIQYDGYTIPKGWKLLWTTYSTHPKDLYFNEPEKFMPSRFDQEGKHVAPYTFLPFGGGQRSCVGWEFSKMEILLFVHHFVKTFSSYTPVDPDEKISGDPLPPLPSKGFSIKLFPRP
T3 sequence (Q8W4T9 whole entry): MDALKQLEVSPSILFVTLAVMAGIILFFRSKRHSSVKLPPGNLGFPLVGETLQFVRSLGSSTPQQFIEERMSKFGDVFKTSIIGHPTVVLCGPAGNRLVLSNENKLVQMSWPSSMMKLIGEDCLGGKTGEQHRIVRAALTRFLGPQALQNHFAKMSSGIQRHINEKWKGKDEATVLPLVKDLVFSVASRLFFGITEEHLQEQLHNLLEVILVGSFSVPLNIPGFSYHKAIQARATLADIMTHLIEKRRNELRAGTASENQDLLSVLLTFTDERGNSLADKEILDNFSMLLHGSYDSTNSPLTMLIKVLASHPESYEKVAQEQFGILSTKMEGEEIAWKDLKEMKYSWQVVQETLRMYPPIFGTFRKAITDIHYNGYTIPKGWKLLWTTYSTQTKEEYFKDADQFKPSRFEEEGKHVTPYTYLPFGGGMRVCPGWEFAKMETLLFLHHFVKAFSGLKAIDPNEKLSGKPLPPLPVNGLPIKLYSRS

For `C=C1CCC[C@@]2(C)CCC3=C(C)CC[C@@H](C[C@H]12)C3(C)C` [taxa-4(20),11(12)-diene], the Kd [1, 7] was 4 ± 1 µM, the Kd [1, 8] was 3 to 5 µM and the Vrel [2] was 120. For the same molecule, the Km [3] was 27 µM, the Vrel [3] was 150 and the “share of minor product taxadien-diol” value [4, 9] was ~8%. For the same molecule, the “share of principal product taxa-4(20),11(12)-dien-5α-ol” value [4, 9] was ~90%, the “share of other minor metabolites in product mix” value ([4]; also formed in negative control) was ~2% and the “isomerization to the other taxadiene positional isomer” value (“isomerization” for short) [5] was “No isomerization”. For the same molecule, the “Vrel (average)” value (taxoid 5α-hydroxylase) was 135.
For `Clc1ccc(COC(Cn2ccnc2)c2ccc(Cl)cc2Cl)c(Cl)c1` (stereo not shown) [miconazole], the “hydroxylation activity in the presence of the inhibitor” value (5α-hydroxylase) is given as “negligible”.
`CC1=CCC[C@@]2(C)CCC3=C(C)CC[C@@H](C[C@H]12)C3(C)C` [taxa-4(5),11(12)-diene] gave a Kd [1, 7] of 6.5 ± 1.5 µM, a Kd [1, 8] of 5 to 8 µM and a Vrel [2] of 100. The Km [3] was 48 µM, the Vrel [3] was 100 and the “conversion to more polar products” value [4, 9] was “almost quantitatively”. The “share of minor product taxadien-diol” value [4, 9] was < 50%, the “share of principal product taxa-4(20),11(12)-dien-5α-ol” value [4, 9] was > 92% and the “isomerization” value [5] was “No isomerization”. The “isomerization” value ([5]; listed as 3) was “not observed”, the “Vrel (average)” value (taxoid 5α-hydroxylase) was 100 and the Km [6] was ~6 µM.
In the case of `Clc1ccccc1C(c1ccccc1)(c1ccccc1)n1ccnc1` [clotrimazole], the “hydroxylation activity in the presence of the inhibitor” value (5α-hydroxylase) is listed as “negligible”.
With `C=C1[C@H]2C[C@@H]3CCC(C)=C(CC[C@]2(C)CC[C@@H]1O)C3(C)C` [taxa-4(20),11(12)-dien-5α-ol] the “conversion to taxa-4(20),11(12)-dien-5α,13α-diol” value (taxoid 13α-hydroxylase) was “quantitatively”.
